Literature values, collected in patent US20140186456A1, “Tripartite Bioactive Composition Providing Anti-Oxidant and Anti-Inflammatory Effects with Immune System and Stem Cell Production Enhancement” (priority 2011, published 2014).

Test system: organisms and animal species

With Oc1ccc(/C=C/c2cc(O)cc(O)c2)cc1 [resveratrol, 3,5,4′-trihydroxy-trans-stilbene] as the molecule, how does the increase of lifespan read?
The increase of lifespan was 20-40%.
